Test [1] deals with T1, Glycogen synthase kinase-3 beta (Homo sapiens, UniProt P49841). The test is described as follows: Inhibition of His-tagged full length human recombinant GSK-3beta expressed in Baculovirus at 0.5 uM using Ser/Thr9 peptide as substrate by Z' LYTE assay relative to control.
Target sequence in this assay (P49841 whole entry, looked up): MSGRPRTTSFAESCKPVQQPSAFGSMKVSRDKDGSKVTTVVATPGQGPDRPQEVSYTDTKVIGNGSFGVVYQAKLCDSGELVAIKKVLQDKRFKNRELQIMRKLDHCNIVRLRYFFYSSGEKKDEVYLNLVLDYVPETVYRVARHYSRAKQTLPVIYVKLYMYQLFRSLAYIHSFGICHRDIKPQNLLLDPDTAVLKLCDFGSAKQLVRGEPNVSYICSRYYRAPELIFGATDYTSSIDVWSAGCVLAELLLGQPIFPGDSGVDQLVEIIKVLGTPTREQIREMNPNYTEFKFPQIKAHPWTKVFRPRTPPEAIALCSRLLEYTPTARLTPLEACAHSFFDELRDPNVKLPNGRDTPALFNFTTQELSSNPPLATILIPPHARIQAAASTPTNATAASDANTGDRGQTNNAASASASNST
For test [2], the target named is T1, Glycogen synthase kinase-3 beta. Briefly: Inhibition of His-tagged full length human recombinant GSK-3beta expressed in Baculovirus using Ser/Thr9 peptide as substrate by Z' LYTE assay.
Target sequence in this assay (P49841 whole entry): as the sequence (P49841 whole entry, looked up) above
The target of test [3] is Cyclin-dependent kinase 2 (Homo sapiens) (UniProt P24941). Briefly: Inhibition of GST-tagged human recombinant CDK2 assessed as residual activity at 2 uM using Ser/Thr12 peptide as substrate by Z' LYTE assay relative to control.

The structures appear in SMILES notation. A value given as a limit tells only on which side of the number the result lay.

Broadly, the inhibition is how much of the control response was suppressed. A word on the IC50: it is the midpoint of a concentration-inhibition curve. For `CCOc1cc(/C=C2\S/C(=N\Cc3ccccc3)NC2=O)ccc1O`, the inhibition in test [1] was greater than 50%. Moreover, the IC50 in test [2] was found to be 51.7 nM. Besides, in test [3], the Activity was found to be 39.1%.

As for `O=C1N=C(NCc2ccccc2)S/C1=C\c1ccc(O)cc1`, the inhibition in test [1] was greater than 50%. The IC50 in test [2] was 27.1 nM. The Activity in test [3] came out at 63.2%.

With `O=C1N/C(=N/c2ccccc2)S/C1=C\c1ccc(O)cc1`, in test [1], the inhibition is greater than 50%. In test [2], the IC50 was 27.7 nM. The Activity in test [3] worked out at 69.6%.

With `COc1ccc(/C=C2\SC(=N)NC2=O)cc1OC`, in test [1], the inhibition is greater than 50%. The IC50 in test [2] is 80.5 nM.

`N=C1NC(=O)/C(=C/c2ccc(O)c(C(=O)O)c2)S1`: the inhibition in test [1] was greater than 50%. For the same compound, the IC50 in test [2] is 84.8 nM.

Consider `COc1ccc(/C=C2\S/C(=N\Cc3ccccc3)NC2=O)cc1[N+](=O)[O-]`, for which, in test [1], the inhibition was greater than 50%. Further, the IC50 in test [2] amounted to 2.1 nM. In addition, in test [3], the Activity amounted to 73%.

As for `COc1cc(/C=C2\SC(=N)NC2=O)ccc1O`, the inhibition in test [1] is greater than 50%.

As for `O=C1N/C(=N/Cc2ccccc2)S/C1=C\c1ccc(Cl)c([N+](=O)[O-])c1`, in test [1], the inhibition is greater than 50%. Moreover, the IC50 in test [2] worked out at 24 nM. For the same compound, the Activity in test [3] worked out at 68.4%.

Regarding `COc1ccc(/C=C2\S/C(=N\Cc3ccccc3)NC2=O)cc1OC`, the inhibition in test [1] is greater than 50%. For the same compound, in test [2], the IC50 is 44.3 nM. Further, the Activity in test [3] is 53.8%.

In the case of `O=C1N/C(=N/c2ccccc2)S/C1=C\c1ccc(F)cc1`, in test [1], the inhibition is greater than 50%. Besides, the IC50 in test [2] came to 40 nM. In addition, the Activity in test [3] stood at 68.9%.

These data come from ChEMBL document CHEMBL3856225, “Design, synthesis and biological evaluation of 5-benzylidene-2-iminothiazolidin-4-ones as selective GSK-3β inhibitors” (Eur J Med Chem, 2016).
